Data from the supplement of paper PMC5908809.

Key:
NK-92 (IL-2 2.5 ng/mL) [1] = assay: drug sensitivity score (DSS) (DSS units); higher = more sensitive; extreme values may be limits of the assay; conditions: 72 h
YT (IL-2 2.5 ng/mL) [2] = assay: as above; conditions: 72 h
[3] = test system: normal primary NK cells, pool 1 (3 donors), resting (IL-2 0 ng/mL); assay: as above; conditions: 72 h
SNK-6 (IL-2 2.5 ng/mL) [4] = assay: as above; conditions: 72 h
NK-YS (IL-2 2.5 ng/mL) [5] = assay: as above; conditions: 72 h
[6] = test system: normal primary NK cells, pool 1 (3 donors) (IL-2 2.5 ng/mL); assay: as above; conditions: 72 h
KAI3 (IL-2 2.5 ng/mL) [7] = assay: as above; conditions: 72 h
KHYG-1 (IL-2 2.5 ng/mL) [8] = assay: as above; conditions: 72 h
IMC-1 (IL-2 20 ng/mL) [9] = assay: as above; conditions: 72 h
[10] = test system: normal primary NK cells, pool 3 (3 donors) (IL-2 2.5 ng/mL); assay: as above; conditions: 72 h
[11] = test system: normal primary NK cells, pool 2 (3 donors) (IL-2 2.5 ng/mL); assay: as above; conditions: 72 h
DERL-7 (IL-2 2.5 ng/mL) [12] = assay: as above; conditions: 72 h
NKL (IL-2 2.5 ng/mL) [13] = assay: as above; conditions: 72 h
NK-92 (IL-2 2.5 ng/mL) [14] = assay: percent inhibition of viability; higher = more inhibition; conditions: 72 h
YT (IL-2 2.5 ng/mL) [15] = assay: as above; conditions: 72 h
[16] = test system: normal primary NK cells, pool 1 (3 donors), resting (IL-2 0 ng/mL); assay: as above; conditions: 72 h
SNK-6 (IL-2 2.5 ng/mL) [17] = assay: as above; conditions: 72 h
NK-YS (IL-2 2.5 ng/mL) [18] = assay: as above; conditions: 72 h
[19] = test system: normal primary NK cells, pool 1 (3 donors) (IL-2 2.5 ng/mL); assay: as above; conditions: 72 h
KAI3 (IL-2 2.5 ng/mL) [20] = assay: as above; conditions: 72 h
KHYG-1 (IL-2 2.5 ng/mL) [21] = assay: as above; conditions: 72 h
IMC-1 (IL-2 20 ng/mL) [22] = assay: as above; conditions: 72 h
[23] = test system: normal primary NK cells, pool 3 (3 donors) (IL-2 2.5 ng/mL); assay: as above; conditions: 72 h
[24] = test system: normal primary NK cells, pool 2 (3 donors) (IL-2 2.5 ng/mL); assay: as above; conditions: 72 h
DERL-7 (IL-2 2.5 ng/mL) [25] = assay: as above; conditions: 72 h
NKL (IL-2 2.5 ng/mL) [26] = assay: as above; conditions: 72 h
[27] = test system: normal NK cells expanded with K562-aAPC; assay: as above; conditions: 72 h, IL-2 2.5 ng/mL
Description: (§1)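 Drug sensitivity and resistance testing on K562-aAPC-expanded normal NK cells: 5 concentrations (10-fold steps over a 10,000-fold range), 72 h at 37 °C, viability by CellTiter-Glo normalised to DMSO and benzethonium chloride controls; DSS from the fitted curve.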

[28] = test system: normal NK cells expanded with K562-aAPC; assay: drug sensitivity score (DSS) (DSS units); higher = more sensitive; extreme values may be limits of the assay; conditions: 72 h; IL-2 2.5 ng/mL
Description: as §1

CCNC(=O)c1noc(-c2cc(C(C)C)c(O)cc2O)c1-c1ccc(CN2CCOCC2)cc1 [Luminespib] (max concentration tested 1000 nM)
Conditions	drug sensitivity score
DERL-7 (IL-2 2.5 ng/mL) [12]	30.7
IMC-1 (IL-2 20 ng/mL) [9]	24.3
KAI3 (IL-2 2.5 ng/mL) [7]	29.8
KHYG-1 (IL-2 2.5 ng/mL) [8]	24
NK-92 (IL-2 2.5 ng/mL) [1]	25.4
NK-YS (IL-2 2.5 ng/mL) [5]	29.1
NKL (IL-2 2.5 ng/mL) [13]	26.9
SNK-6 (IL-2 2.5 ng/mL) [4]	19.6
YT (IL-2 2.5 ng/mL) [2]	17.6
[3]	11.5
[6]	25.7
[10]	22.2
[11]	23.5
[28]	29.5

percent inhibition of viability [%]
Conditions	0.1 nM	1 nM	10 nM	100 nM	1000 nM
DERL-7 (IL-2 2.5 ng/mL) [25]	2.4	1.89	99.7	100	100
IMC-1 (IL-2 20 ng/mL) [22]	-0.63	-3.7	51.6	99.6	99.7
KAI3 (IL-2 2.5 ng/mL) [20]	1.34	8.03	88.8	100	97.7
KHYG-1 (IL-2 2.5 ng/mL) [21]	-1.01	1.79	47.7	102	99.4
NK-92 (IL-2 2.5 ng/mL) [14]	-9.62	-1.81	66.9	97.9	95
NK-YS (IL-2 2.5 ng/mL) [18]	-0.03	4.35	89.3	98.7	97.7
NKL (IL-2 2.5 ng/mL) [26]	-1.62	-1.66	87.8	86.7	85.5
SNK-6 (IL-2 2.5 ng/mL) [17]	-5.65	9.52	35.8	85.2	87.3
YT (IL-2 2.5 ng/mL) [15]	-1.24	-3.01	7.32	89.6	92.1
[16]	-4.56	-1.24	21.2	46.8	48.1
[19]	-3.81	5.41	76.8	82.5	86.2
[23]	-20	-6.55	68.1	75.4	77.5
[24]	-11.3	0.74	74.2	74.9	76
[27]	-2.12	-2.95	97.5	97.4	97.4

CN(C)Cc1ccc(S(=O)(=O)n2ccc(/C=C/C(=O)NO)c2)cc1 [Resminostat] (max concentration tested 10000 nM)
Conditions	drug sensitivity score
DERL-7 (IL-2 2.5 ng/mL) [12]	11.5
IMC-1 (IL-2 20 ng/mL) [9]	5.11
KAI3 (IL-2 2.5 ng/mL) [7]	17.1
KHYG-1 (IL-2 2.5 ng/mL) [8]	13.4
NK-92 (IL-2 2.5 ng/mL) [1]	14.1
NK-YS (IL-2 2.5 ng/mL) [5]	10.3
NKL (IL-2 2.5 ng/mL) [13]	18.2
SNK-6 (IL-2 2.5 ng/mL) [4]	12.3
YT (IL-2 2.5 ng/mL) [2]	9.67
[3]	16.1
[6]	13
[10]	8.68
[11]	10.2
[28]	10.6

percent inhibition of viability [%]
Conditions	1 nM	10 nM	100 nM	1000 nM	10000 nM
DERL-7 (IL-2 2.5 ng/mL) [25]	2.49	1.77	-10	47.9	101
IMC-1 (IL-2 20 ng/mL) [22]	-6.01	-4.89	-2.77	-7.01	101
KAI3 (IL-2 2.5 ng/mL) [20]	1.92	3.59	28.4	71.5	104
KHYG-1 (IL-2 2.5 ng/mL) [21]	-5.72	-0.43	1.19	68.5	106
NK-92 (IL-2 2.5 ng/mL) [14]	-4.22	-5.89	2.76	72.4	104
NK-YS (IL-2 2.5 ng/mL) [18]	-6.67	-3.77	2.32	34.2	103
NKL (IL-2 2.5 ng/mL) [26]	10.2	0.52	26.1	80.8	106
SNK-6 (IL-2 2.5 ng/mL) [17]	11.1	1.11	5.35	56.6	101
YT (IL-2 2.5 ng/mL) [15]	-1.93	-2.18	2.96	27.7	105
[16]	-6.63	11.2	20.3	73.7	89.4
[19]	2.24	11.9	12.7	57.5	98.9
[23]	-1.68	4.21	3.8	20.1	98.5
[24]	-6.44	4.91	8.82	42	97.4
[27]	-4.58	-2.4	-0.88	36.9	101

O=C(O)c1ccc2c(c1)nc(Nc1cccc(Cl)c1)c1ccncc12 [Silmitasertib] (max concentration tested 10000 nM)
Conditions	drug sensitivity score
DERL-7 (IL-2 2.5 ng/mL) [12]	7.04
IMC-1 (IL-2 20 ng/mL) [9]	2.35
KAI3 (IL-2 2.5 ng/mL) [7]	7.33
KHYG-1 (IL-2 2.5 ng/mL) [8]	7.83
NK-92 (IL-2 2.5 ng/mL) [1]	4.09
NK-YS (IL-2 2.5 ng/mL) [5]	6.72
NKL (IL-2 2.5 ng/mL) [13]	6.45
SNK-6 (IL-2 2.5 ng/mL) [4]	4.04
YT (IL-2 2.5 ng/mL) [2]	7.24
[3]	2.91
[6]	7.64
[10]	5.54
[11]	5.68
[28]	8.41

percent inhibition of viability [%]
Conditions	1 nM	10 nM	100 nM	1000 nM	10000 nM
DERL-7 (IL-2 2.5 ng/mL) [25]	-3.79	0.67	-2.32	10.4	96
IMC-1 (IL-2 20 ng/mL) [22]	7.09	6.12	5.81	-2.16	48.4
KAI3 (IL-2 2.5 ng/mL) [20]	4.28	8.25	8.8	16.1	84.8
KHYG-1 (IL-2 2.5 ng/mL) [21]	2.32	3.89	1.97	14.4	98.1
NK-92 (IL-2 2.5 ng/mL) [14]	6.03	10.9	-12.3	-16.9	90.2
NK-YS (IL-2 2.5 ng/mL) [18]	5.01	1.7	1.66	10.8	88.7
NKL (IL-2 2.5 ng/mL) [26]	11.5	10.7	2.41	13.4	76.3
SNK-6 (IL-2 2.5 ng/mL) [17]	4.5	3.13	-1.8	-10.8	85.2
YT (IL-2 2.5 ng/mL) [15]	5.21	5.15	4.79	17.7	79.9
[16]	-25.1	-31.8	-43.9	-9.05	63.9
[19]	-9.41	-7.07	-7.39	18.1	85.6
[23]	-4.66	-2.89	-4.84	9.91	70.3
[24]	-8.83	-6.36	2.09	8.72	76.5
[27]	6.72	1.13	2.51	24.6	85.7
